Experimental data from patent publication US10099993B2, “Metabotropic glutamate receptor positive allosteric modulators (PAMS) and uses thereof” (Sanford-Burnham Medical Research Institute, priority 2014, dated 2018).

Tests used:
mGlu6 = mGlu6 (Rattus norvegicus (Rat), UniProt P35349); assay: mGlu6 GIRK thallium flux assay; type: cell-based; details: full agonist concentration-response ± 10 μM compound
mGlu4 = mGlu4 (Rattus norvegicus (Rat), UniProt P31423); assay: mGlu4 GIRK thallium flux assay; type: cell-based; details: full agonist concentration-response ± 10 μM compound
mGlu5 = mGlu5 (Rattus norvegicus (Rat), UniProt P31424); assay: mGlu5 calcium assay; type: cell-based; details: full agonist concentration-response ± 10 μM compound
[1] = 100 μM, pH 7.2
mGlu8 = mGlu8 (Rattus norvegicus (Rat), UniProt P70579); assay: mGlu8 GIRK thallium flux assay; type: cell-based; details: full agonist concentration-response ± 10 μM compound
mGlu3 = mGlu3 (Rattus norvegicus (Rat), UniProt P31422); assay: mGlu3 GIRK thallium flux assay; details: for General activity at mGlu3: full agonist concentration-response ± 10 μM compound;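 for all read-outs here: kinetic fluorescence slope read shortly after thallium plus agonist addition, scaled between vehicle and maximal agonist control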
mGlu1 = mGlu1 (Rattus norvegicus (Rat), UniProt P23385); assay: mGlu1 calcium assay; type: cell-based; details: full agonist concentration-response ± 10 μM compound
[2] = rat, in vivo, ip, 10 mg/kg
mGlu7 = mGlu7 (Rattus norvegicus (Rat), UniProt P35400); assay: mGlu7 GIRK thallium flux assay; type: cell-based; details: full L-AP4 concentration-response ± 10 μM compound
forty-five CNS receptors = assay: CNS receptors panel (NIMH PDSP), radioligand binding; details: 10 μM
mGlu2 = mGlu2 (Rattus norvegicus (Rat), UniProt P31421); assay: mGlu2 GIRK thallium flux assay;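 note: Cell-based assay, rate of fluorescence rise right after thallium plus agonist addition read on a kinetic imaging plate reader, normalized to vehicle and maximal agonist control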
[3] = target: Peripheral benzodiazepine receptor ([3H]PK11195) (Rattus norvegicus (Rat), UniProt P16257); assay: PDSP radioligand binding
Dopamine D2 = Dopamine D2 (Homo sapiens (Human), UniProt P14416); assay: PDSP radioligand binding; details: Dopamine D2, 10 μM, displacement of radioligand
Adrenergic α2C = Adrenergic α2C (Homo sapiens (Human), UniProt P18825); assay: PDSP radioligand binding; details: displacement of radioligand
[4] = In vivo PK in rats, i.p. administration; details: rats, i.p., 10 mg/kg, Tmax 30 min
Dopamine D5 = Dopamine D5 (Homo sapiens (Human), UniProt P21918); assay: PDSP radioligand binding; details: Dopamine D5, 10 μM, displacement of radioligand
Muscarinic M4 = Muscarinic M4 (Homo sapiens (Human), UniProt P08173); assay: PDSP radioligand binding; details: Muscarinic M4, 10 μM, displacement of radioligand
Histamine H1 = Histamine H1 (Homo sapiens (Human), UniProt P35367); assay: PDSP radioligand binding; details: Histamine H1, 10 μM, displacement of radioligand
[5] = target: Transporter, Serotonin (5-Hydroxytryptamine) (SERT) (Homo sapiens (Human), UniProt P31645); assay: PDSP radioligand binding; details: displacement of radioligand
[6] = target: Serotonin (5-Hydroxytryptamine) 5-HT2A (Homo sapiens (Human), UniProt P28223); assay: PDSP radioligand binding; details: displacement of radioligand
Muscarinic M2 = Muscarinic M2 (Homo sapiens (Human), UniProt P08172); assay: PDSP radioligand binding; details: Muscarinic M2, 10 μM, displacement of radioligand
[7] = type: in vitro ADME; details: rat, 1 h
[8] = rat, microsomes, 1 h

Chain of mGlu3 (P31422 23-879): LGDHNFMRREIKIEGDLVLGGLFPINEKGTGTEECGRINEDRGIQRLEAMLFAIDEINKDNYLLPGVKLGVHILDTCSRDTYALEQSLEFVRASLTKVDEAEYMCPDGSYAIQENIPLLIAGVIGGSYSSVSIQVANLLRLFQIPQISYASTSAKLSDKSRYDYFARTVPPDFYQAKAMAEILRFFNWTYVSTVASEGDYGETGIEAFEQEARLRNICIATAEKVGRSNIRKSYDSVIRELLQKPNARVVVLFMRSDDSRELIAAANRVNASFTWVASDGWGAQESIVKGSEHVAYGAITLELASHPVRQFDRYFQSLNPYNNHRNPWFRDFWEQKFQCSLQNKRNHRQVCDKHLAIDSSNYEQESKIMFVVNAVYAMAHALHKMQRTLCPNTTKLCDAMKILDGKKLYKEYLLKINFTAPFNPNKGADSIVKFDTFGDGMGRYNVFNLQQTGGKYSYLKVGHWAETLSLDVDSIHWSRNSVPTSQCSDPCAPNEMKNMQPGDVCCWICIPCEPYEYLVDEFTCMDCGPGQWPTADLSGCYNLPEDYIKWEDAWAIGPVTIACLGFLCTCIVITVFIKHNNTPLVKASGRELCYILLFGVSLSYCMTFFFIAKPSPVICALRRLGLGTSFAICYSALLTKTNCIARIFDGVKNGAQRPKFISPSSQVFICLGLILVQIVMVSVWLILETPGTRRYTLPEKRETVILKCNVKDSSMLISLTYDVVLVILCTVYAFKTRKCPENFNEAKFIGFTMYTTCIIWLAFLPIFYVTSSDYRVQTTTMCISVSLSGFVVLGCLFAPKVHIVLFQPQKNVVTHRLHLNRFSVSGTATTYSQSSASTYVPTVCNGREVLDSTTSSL
Chain of mGlu6 (P35349 24-871): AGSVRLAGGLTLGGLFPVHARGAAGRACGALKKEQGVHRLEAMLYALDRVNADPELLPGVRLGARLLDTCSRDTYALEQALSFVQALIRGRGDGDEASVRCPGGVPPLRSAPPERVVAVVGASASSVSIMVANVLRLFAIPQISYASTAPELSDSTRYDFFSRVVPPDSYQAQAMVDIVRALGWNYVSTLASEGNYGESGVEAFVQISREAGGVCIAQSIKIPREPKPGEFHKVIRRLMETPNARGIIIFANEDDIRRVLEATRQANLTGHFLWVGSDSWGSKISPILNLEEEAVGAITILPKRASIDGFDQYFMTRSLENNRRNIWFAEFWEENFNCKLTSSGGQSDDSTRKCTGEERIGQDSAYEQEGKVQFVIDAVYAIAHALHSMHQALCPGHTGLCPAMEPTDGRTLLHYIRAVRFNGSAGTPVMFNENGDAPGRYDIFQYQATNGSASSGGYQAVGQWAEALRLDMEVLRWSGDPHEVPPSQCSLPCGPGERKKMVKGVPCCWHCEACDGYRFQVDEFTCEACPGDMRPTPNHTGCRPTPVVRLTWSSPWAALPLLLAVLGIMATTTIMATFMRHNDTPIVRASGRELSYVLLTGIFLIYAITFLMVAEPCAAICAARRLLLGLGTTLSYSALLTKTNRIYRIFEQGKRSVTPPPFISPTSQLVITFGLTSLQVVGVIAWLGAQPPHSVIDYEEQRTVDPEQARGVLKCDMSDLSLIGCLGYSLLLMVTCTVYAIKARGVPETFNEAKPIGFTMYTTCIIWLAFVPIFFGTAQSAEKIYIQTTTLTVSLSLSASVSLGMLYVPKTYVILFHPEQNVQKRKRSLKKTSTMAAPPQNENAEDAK
Chain of mGlu1 (P23385 19-1199): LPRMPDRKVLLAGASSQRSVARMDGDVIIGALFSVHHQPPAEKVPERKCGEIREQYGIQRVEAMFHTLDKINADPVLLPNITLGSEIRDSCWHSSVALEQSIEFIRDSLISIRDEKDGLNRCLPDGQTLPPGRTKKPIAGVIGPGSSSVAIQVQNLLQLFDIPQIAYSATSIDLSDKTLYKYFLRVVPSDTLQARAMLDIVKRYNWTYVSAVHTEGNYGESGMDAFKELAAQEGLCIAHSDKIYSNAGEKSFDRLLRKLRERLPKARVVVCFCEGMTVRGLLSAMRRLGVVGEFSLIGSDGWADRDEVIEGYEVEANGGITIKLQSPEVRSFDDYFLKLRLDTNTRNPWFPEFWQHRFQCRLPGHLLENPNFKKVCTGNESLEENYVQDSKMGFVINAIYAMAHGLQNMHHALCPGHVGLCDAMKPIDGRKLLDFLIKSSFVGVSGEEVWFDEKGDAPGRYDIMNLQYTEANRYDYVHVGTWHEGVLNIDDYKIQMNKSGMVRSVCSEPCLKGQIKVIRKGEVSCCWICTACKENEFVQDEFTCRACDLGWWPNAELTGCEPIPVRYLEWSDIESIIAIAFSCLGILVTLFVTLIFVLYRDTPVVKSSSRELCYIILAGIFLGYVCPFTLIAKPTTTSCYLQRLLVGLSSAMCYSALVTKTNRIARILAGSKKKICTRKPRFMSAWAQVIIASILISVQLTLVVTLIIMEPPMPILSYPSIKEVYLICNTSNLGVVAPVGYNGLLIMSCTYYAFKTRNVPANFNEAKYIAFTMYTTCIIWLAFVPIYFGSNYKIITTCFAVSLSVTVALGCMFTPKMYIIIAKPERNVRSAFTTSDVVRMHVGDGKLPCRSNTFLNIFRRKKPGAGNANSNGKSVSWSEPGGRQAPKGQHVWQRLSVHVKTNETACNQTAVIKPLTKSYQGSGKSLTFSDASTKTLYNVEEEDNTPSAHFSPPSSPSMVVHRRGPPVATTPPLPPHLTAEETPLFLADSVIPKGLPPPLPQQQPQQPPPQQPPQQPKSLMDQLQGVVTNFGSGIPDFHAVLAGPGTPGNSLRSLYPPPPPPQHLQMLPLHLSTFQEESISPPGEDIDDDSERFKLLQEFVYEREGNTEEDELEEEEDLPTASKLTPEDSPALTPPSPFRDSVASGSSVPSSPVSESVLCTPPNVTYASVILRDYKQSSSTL
Chain of mGlu8 (P70579 34-908): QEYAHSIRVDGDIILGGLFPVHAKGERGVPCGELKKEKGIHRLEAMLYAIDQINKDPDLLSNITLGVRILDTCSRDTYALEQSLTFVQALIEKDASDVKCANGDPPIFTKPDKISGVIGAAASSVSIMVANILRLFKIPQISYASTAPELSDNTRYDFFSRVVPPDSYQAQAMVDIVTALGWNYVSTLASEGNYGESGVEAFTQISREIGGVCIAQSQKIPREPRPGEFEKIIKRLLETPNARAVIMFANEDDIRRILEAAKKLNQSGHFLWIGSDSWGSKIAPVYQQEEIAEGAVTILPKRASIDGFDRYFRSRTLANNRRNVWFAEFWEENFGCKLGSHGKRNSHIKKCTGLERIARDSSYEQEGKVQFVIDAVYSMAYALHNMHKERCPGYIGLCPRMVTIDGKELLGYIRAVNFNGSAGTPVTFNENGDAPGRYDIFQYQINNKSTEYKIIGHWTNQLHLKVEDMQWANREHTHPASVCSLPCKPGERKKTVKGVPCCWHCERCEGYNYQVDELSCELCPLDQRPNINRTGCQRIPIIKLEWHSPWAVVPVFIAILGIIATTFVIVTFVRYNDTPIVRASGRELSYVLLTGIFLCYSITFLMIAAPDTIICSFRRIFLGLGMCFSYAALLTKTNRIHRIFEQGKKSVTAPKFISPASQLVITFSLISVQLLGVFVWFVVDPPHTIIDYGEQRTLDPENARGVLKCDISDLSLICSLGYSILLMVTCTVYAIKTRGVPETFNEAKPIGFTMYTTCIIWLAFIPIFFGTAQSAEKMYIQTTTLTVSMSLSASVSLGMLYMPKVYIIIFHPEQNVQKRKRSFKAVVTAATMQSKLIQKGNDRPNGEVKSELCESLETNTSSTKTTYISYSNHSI
Chain of mGlu2 (P31421 19-872): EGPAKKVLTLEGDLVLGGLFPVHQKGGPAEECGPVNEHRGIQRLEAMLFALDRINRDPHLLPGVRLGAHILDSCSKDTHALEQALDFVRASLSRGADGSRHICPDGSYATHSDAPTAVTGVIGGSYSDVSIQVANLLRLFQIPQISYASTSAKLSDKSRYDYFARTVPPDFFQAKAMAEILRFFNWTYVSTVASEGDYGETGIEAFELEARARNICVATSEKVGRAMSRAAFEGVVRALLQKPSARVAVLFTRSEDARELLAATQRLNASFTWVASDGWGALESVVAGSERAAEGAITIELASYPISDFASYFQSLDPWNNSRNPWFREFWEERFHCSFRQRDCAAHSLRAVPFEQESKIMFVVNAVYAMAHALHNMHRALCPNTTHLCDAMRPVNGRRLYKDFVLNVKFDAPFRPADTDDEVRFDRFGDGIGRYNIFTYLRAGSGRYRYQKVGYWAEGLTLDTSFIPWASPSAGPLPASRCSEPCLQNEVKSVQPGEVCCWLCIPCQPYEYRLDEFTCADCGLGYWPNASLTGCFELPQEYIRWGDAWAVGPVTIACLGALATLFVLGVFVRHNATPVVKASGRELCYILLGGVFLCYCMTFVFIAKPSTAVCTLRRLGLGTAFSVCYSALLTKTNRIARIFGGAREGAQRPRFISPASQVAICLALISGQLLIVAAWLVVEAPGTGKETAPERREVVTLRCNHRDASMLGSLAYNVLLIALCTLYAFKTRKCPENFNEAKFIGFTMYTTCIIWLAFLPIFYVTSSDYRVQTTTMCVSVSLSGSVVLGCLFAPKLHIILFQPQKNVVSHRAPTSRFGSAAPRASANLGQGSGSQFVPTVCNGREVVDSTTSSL
Chain of Adrenergic α2C (P18825 whole entry): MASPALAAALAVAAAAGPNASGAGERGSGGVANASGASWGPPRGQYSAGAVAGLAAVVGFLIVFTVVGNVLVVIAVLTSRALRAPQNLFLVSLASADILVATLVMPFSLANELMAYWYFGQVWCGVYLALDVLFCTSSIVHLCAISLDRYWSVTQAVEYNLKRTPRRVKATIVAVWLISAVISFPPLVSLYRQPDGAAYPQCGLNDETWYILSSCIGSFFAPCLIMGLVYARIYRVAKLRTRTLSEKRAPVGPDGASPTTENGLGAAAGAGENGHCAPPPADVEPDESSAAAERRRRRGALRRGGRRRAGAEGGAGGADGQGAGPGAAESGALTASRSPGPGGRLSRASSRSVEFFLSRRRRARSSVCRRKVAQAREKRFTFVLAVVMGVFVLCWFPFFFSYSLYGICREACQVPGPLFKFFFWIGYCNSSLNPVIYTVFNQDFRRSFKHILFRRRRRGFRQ

## COc1cc(C(=O)O)ccc1OCCCCOc1ccc(C(=O)CC(C)(C)C)c(O)c1C [compound 73]
mGlu6
  General activity at mGlu6: PAM
mGlu4
  General activity at mGlu4: inactive^b
mGlu5
  General activity at mGlu5: inactive^b
[1]
  PAMPA (LogPapp): −5.46
mGlu8
  General activity at mGlu8: inactive^b
mGlu3
  General activity at mGlu3: Ago-PAM
mGlu1
  General activity at mGlu1: inactive^b
[2]
  Brain: Plasma: 0.02 ± 0.01
mGlu7
  General activity at mGlu7: inactive^b

## COc1ccc(C(=O)O)cc1OCCCCOc1ccc(C(=O)CC(C)(C)C)c(O)c1C [compound 72, 3-(4-(4-(3,3-Dimethylbutanoyl)-3-hydroxy-2-methylphenoxy)butoxy)-4-methoxybenzoic acid]
forty-five CNS receptors
  binding activity at forty-five CNS receptors: no binding activity was detected
mGlu2; full agonist concentration-response ± 10 μM compound
  General activity at mGlu2: Ago-PAM
mGlu2; mGlu2, 10 μM compound
  Emin, minimal response of the concentration-response of agonist: Emin = 72%
mGlu6
  General activity at mGlu6: inactive^b
[3]
  inhibition at 10 µM: 1%
mGlu4
  General activity at mGlu4: inactive^b
Dopamine D2
  inhibition at 10 µM: 1%
mGlu5
  General activity at mGlu5: inactive^b
Adrenergic α2C
  inhibition at 10 µM: 0.6%
mGlu8
  General activity at mGlu8: inactive^b
mGlu3
  General activity at mGlu3: Ago-PAM
mGlu3; mGlu3, 10 μM compound
  Emin, minimal response of the concentration-response of agonist: Emin = 54%
[4]
  Plasma, maximum concentration: 2.44 ± 2.19 µM
Dopamine D5
  inhibition at 10 µM: -0.9%
Muscarinic M4
  inhibition at 10 µM: -0.9%
Histamine H1
  inhibition at 10 µM: 0.2%
mGlu1
  General activity at mGlu1: inactive^b
[5]
  inhibition at 10 µM: 0.3%
[6]
  inhibition at 10 µM: -0.6%
mGlu7
  General activity at mGlu7: inactive^b
Muscarinic M2
  inhibition at 10 µM: -1%

## COc1cc(C(=O)O)ccc1OCCCCOc1ccc(C(=O)CC2CCCC2)c(O)c1C [Compound 45, 4-{4-[4-(2-Cyclopentylacetyl)-3-hydroxy-2-methylphenoxy]butoxy}-methoxybenzoic acid]
[7]
  Plasma Stability, percent remaining: 100%
[8]
  Microsomal stability, percent remaining: 31%
[1]
  PAMPA (LogPapp): −6.54
